Assay results as given in patent US20220348563A1, “KDM INHIBITORS AND USES THEREOF” (DANA-FARBER CANCER INSTITUTE, INC., priority 2019, published 2022).

Biological target: T1, KDM3A (Homo sapiens, UniProt Q9Y4C1)
T1 sequence (Q9Y4C1 1-1321): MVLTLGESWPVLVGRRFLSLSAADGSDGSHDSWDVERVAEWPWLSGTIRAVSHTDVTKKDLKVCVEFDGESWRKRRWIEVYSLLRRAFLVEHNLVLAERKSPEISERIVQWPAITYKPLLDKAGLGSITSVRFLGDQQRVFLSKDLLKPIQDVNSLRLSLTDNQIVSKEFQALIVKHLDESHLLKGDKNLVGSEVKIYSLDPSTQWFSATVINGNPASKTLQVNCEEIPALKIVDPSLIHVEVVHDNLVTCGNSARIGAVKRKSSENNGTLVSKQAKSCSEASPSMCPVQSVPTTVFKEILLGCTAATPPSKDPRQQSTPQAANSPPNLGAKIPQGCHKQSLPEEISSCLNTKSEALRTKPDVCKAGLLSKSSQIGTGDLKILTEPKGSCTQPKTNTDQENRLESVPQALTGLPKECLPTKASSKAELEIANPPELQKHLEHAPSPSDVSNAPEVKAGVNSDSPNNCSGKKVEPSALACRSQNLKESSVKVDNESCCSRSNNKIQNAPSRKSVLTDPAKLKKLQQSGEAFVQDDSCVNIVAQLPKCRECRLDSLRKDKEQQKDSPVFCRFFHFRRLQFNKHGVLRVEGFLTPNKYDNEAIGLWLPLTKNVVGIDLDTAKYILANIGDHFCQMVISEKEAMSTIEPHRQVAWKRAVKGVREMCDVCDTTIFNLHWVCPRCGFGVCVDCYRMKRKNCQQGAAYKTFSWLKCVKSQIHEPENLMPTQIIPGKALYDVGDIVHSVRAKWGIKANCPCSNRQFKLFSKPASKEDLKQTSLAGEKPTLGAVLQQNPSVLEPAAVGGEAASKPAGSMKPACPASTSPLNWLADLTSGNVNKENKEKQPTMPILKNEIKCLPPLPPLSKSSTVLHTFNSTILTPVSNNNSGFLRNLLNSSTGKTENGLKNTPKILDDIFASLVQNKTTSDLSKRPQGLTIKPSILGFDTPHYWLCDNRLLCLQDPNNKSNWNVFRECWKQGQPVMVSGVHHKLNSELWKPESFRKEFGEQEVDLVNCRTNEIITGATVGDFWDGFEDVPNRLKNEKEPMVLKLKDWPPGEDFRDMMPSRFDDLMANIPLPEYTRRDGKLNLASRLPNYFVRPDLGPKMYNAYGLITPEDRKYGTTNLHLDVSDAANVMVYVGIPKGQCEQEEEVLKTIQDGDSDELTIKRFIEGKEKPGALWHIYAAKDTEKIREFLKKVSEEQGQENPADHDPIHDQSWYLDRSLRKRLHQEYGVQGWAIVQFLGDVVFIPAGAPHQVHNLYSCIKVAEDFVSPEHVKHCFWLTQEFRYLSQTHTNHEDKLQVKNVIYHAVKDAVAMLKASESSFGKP
Assay: KDM3 AlphaScreen assay (Table 2, ASSAY 9)
Assay type: biochemical
Details: ASSAY 9
Experimental: AlphaScreen assays were performed in 384-well plate format using white AlphaPlate™ (PerkinElmer®, USA), and transfer of pre-diluted compound (100 nL) was performed using a Janus® Workstation (PerkinElmer®, USA). All subsequent steps were carried out in assay buffer (50 mM 4-(2-hydroxyethyl)-1-piperazineethanesulfonic acid (HEPES), pH 7.5, 0.1% (wt/vol) bovine serum albumin (BSA) and 0.01% (vol/vol) Tween®20). In brief, 10 μL of assay buffer containing demethylase enzyme (2 nM Final) was pre-incubated for 15 min with dilutions of compound. The enzyme reaction was initiated by the addition of substrate (5 μL) consisting of L-ascorbic acid (100 μM Final), […] (OG) (5 μM Final), FAS (10 μM Final) and histone H3(1-21)K9Me3-GGK Biotin (100 nM Final). The enzyme reaction was allowed to proceed for 30 minutes and was stopped by the addition of 5 μL of assay buffer containing ethylenediaminetetraacetic acid (EDTA) (40 mM) and NaCl (1,200 mM). The final concentration of DMSO was 1%. Streptavidin donor beads (0.08 mg/ml) and protein-A-conjugated acceptor beads (0.08 mg/ml) were preincubated for 1 h with antibody to methyl mark (300 ng/mL Final), and the presence of histone H3 product methyl mark was detected using the preincubated AlphaScreen™ beads (5 μL). Detection was allowed to proceed for 2 h at room temperature, and the assay plates were read on the EnVision® 2104 plate reader. Data were normalized to the (no-enzyme) control, and the IC50 values were determined via nonlinear regression curve fit using GraphPad Prism 7.

| IC50 [µM] | Compound |
| --- | --- |
| 20 | CN(C)c1ccc(CCC(=O)Nc2ccc(C(F)(F)F)cc2C(=O)N2CCC(Oc3ccc(-c4ccc(N(C)C)cc4)cn3)CC2)cc1 [KDM3-53, 3-(4-(dimethylamino)phenyl)-N-(2-(4-((5-(4-(dimethylamino)phenyl)pyridin-2-yl)oxy)piperidine-1-carbonyl)-4-(trifluoromethyl)phenyl)propanamide] |
| 23.6 | CN(C)c1ccc(CCC(=O)Nc2ccc(OC(F)(F)F)cc2C(=O)N2CCC(Oc3ccc(-c4ccc(N(C)C)cc4)cn3)CC2)cc1 [KDM3-59, 3-(4-(dimethylamino)phenyl)-N-(2-(4-((5-(4-(dimethylamino)phenyl)pyridin-2-yl)oxy)piperidine-1-carbonyl)-4-(trifluoromethoxy)phenyl)propanamide] |
| 35 | COc1ccc(S(=O)(=O)Nc2ccc(F)cc2C(=O)N2CCC(Oc3ccc(-c4ccc(N(C)C)cc4)cn3)CC2)cc1OC [KDM3-60] |
